In BindingDB's records for doi:10.1016/s0960-894x(98)00676-3 (Tokushima Bunri University, 1999):
Where a name gives a salt, the structure may show the parent alone.

Target: Arachidonate 5-lipoxygenase (Rattus norvegicus)
Test: Evaluated for inhibitory activity against RBL-1 cell 5-lipoxygenase in rat

| IC50 | Structure (SMILES) |
| --- | --- |
| 820 nM | Cc1cc(OCCN2CCN(C(c3ccccc3)c3ccccc3)CC2)c(C)c(C)c1O [4-[2-(4-Benzhydryl-piperazin-1-yl)-ethoxy]-2,3,6-trimethyl-phenol; hydrochloride] |
| 426 nM | Cc1cc(OCCCN2CCN(C(c3ccccc3)c3ccccc3)CC2)c(C)c(C)c1O [4-[3-(4-Benzhydryl-piperazin-1-yl)-propoxy]-2,3,6-trimethyl-phenol; hydrochloride] |
| 1060 nM | Cc1cc(OCCCCCCCCN2CCN(C(c3ccccc3)c3ccccc3)CC2)c(C)c(C)c1O [4-[8-(4-Benzhydryl-piperazin-1-yl)-octyloxy]-2,3,6-trimethyl-phenol; hydrochloride] |

| Structure (SMILES) | IC50 |
| --- | --- |
| Cc1cc(OCCCCN2CCN(C(c3ccccc3)c3ccccc3)CC2)c(C)c(C)c1O [4-[4-(4-Benzhydryl-piperazin-1-yl)-butoxy]-2,3,6-trimethyl-phenol; hydrochloride] | 358 nM |
